Test results as given in ChEMBL document CHEMBL5136980, “Indoleamine 2,3-dioxygenase 1 (IDO1) inhibitors and PROTAC-based degraders for cancer therapy” (Eur J Med Chem, 2022).

Molecular target: T1, Indoleamine 2,3-dioxygenase 1 (Homo sapiens, UniProt P14902)
Experiment: Inhibition of IDO1 (unknown origin)
Conditions: not given

T1 sequence (P14902 whole entry): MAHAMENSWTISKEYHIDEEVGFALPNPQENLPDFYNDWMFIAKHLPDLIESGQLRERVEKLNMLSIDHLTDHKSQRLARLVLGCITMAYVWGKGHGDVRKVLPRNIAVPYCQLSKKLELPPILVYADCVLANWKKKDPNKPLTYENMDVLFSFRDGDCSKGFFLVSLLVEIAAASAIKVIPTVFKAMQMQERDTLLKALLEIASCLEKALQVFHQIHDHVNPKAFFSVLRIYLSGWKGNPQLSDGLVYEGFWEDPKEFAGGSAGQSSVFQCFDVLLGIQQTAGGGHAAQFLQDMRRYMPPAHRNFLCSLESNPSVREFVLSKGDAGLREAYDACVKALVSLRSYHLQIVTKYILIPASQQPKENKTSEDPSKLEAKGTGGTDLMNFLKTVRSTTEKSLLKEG

IC50 | SMILES
> 250 nM | CC(C(=O)Nc1ccc(Cl)cc1)[C@H]1CC[C@H](Oc2ccnc(C(F)(F)F)c2)CC1 (some centres not stated)
< 50 nM | CC(C(=O)Nc1ccc(Cl)cc1)C1CCC(c2ccnc(C(F)(F)F)c2)CC1 (configuration not stated)
> 50 nM | CC(C(=O)Nc1ccc(Cl)cc1)N1CCC(Oc2ccnc3ccc(F)cc23)CC1 (configuration not stated)
< 50 nM | C[C@@H](NS(=O)(=O)c1cccc(Cl)c1)[C@H]1CC[C@@H](c2ccnc3ccc(F)cc32)CC1
> 50 nM | O=S(=O)(Nc1cccc2cnccc12)c1ccc2c(c1)OCCO2
4 nM | Cn1cc(-c2ccc(NC(=O)N3CCC(C(=O)/C(=N/O)Nc4ccc(F)c(Br)c4)CC3)cc2)cn1
< 50 nM | CC(C)Oc1ccc(S(=O)(=O)NC2CCCc3cnccc32)cc1 (configuration not stated)
< 200 nM | O[C@@H](C[C@H]1c2ccccc2-c2cncn21)c1cc2ccoc2cc1F
> 50 nM | CCC(C(=O)Nc1ccc(Cl)cc1)[C@H]1CC[C@H](Oc2ccnc3ccccc23)CC1 (some centres not stated)
< 50 nM | O=C(Nc1ccc(Cl)cc1)N[C@H]1CC[C@H](c2ccnc3ccc(F)cc32)CC1
16 nM | Cn1cc(-c2cc(F)c(NC(=O)NCC3c4ccccc4-c4cncn43)cc2F)cn1 (configuration not stated)
< 50 nM | C[C@@H](NC(=O)c1ccc(Cl)cc1)[C@H]1CC[C@@H](c2ccnc3ccc(F)cc32)CC1

Continued, compound first:

SMILES | IC50
COC1CN(CCNc2nc3c(F)c(F)cc(/C(=N/O)Nc4cccc(Br)c4)c3[nH]2)C1 | 111 nM
O/N=C(/CCC1CCCCC1)Nc1cccc(Cl)c1 | < 1 nM
N#Cc1ccc(NC(=O)NCC2c3ccccc3-c3cncn32)cc1 (configuration not stated) | < 50 nM
OC(CC1c2cc(F)ncc2-c2cncn21)C1CCCCC1 (configuration not stated) | < 100 nM
Nc1nonc1/C(=N/O)N1Cc2ccccc2C1 | 1.57 nM
OC1CCC(C(F)(F)CC2c3c(F)cccc3-c3cncn32)CC1 (configuration not stated) | < 100 nM
O=C1CCC(N2C(=O)c3cccc(NCCOCCOCCOCCOCCOCCOCCOCCNCCNc4nonc4/C(=N/O)Nc4cccc(Br)c4)c3C2=O)C(=O)N1 (configuration not stated) | 1070 nM

Molecular target: T1, Indoleamine 2,3-dioxygenase 1
Experiment: Inhibition of IDO1 in IFN-gamma stimulated human HeLa cells in presence of heme measured after 20 hrs by heme-competitive binding assay
Assay type: cell-based
Conditions: not given

IC50 | SMILES
< 100 nM | C[C@@H](C(=O)Nc1ccc(C#N)cc1)[C@H]1CC[C@@H](c2ccnc3ccc(F)cc32)CC1

System: not listed separately
Experiment: Oral bioavailability in ICR mouse 30 mg/kg measured after 0.0833 to 24 hrs by liquid chromatography/tandem mass spectrometric analysis
Assay type: ADME, organism-based
Conditions: in vivo, time 0.0833-24 hrs

bioavailability | SMILES
96% | O=S(=O)(NCCCOc1ccccc1-c1c[nH]cn1)C(F)(F)F

System: HeLa
Experiment: Cytotoxicity against human HeLa cells assessed as cell viability incubated for 48 hrs by MTT assay
Assay type: functional, cell-based
Conditions: not given

SMILES | IC50
O=C1CCC(N2C(=O)c3cccc(NCCOCCOCCOCCOCCOCCOCCOCCNCCNc4nonc4/C(=N/O)Nc4cccc(Br)c4)c3C2=O)C(=O)N1 (configuration not stated) | 37400 nM

System: Ehrlich
Experiment: Antitumor activity against mouse Ehrlich ascites carcinoma allografted in Swiss albino mouse assessed tumor growth inhibition by measuring CD8+ T cells relative to control
Assay type: functional
Conditions: not given

SMILES | TGI
NC(=O)c1n[nH]nc1-c1ccc(F)c(F)c1 | 96%

Organism: Homo sapiens
Experiment: Ratio of IC50 for IDO1 (unknown origin) to IC50 for IDO1 in human HeLa cells
Assay type: cell-based
Conditions: not given

SMILES | Ratio IC50
Clc1ccc(Nc2cn[nH]n2)cc1 | > 500

Molecular target: T1, Indoleamine 2,3-dioxygenase 1
Experiment: Inhibition of IDO1 (unknown origin) using L-tryptophan incubated for 30 mins by microplate reader method
Conditions: not given

IC50 | SMILES
240 nM | CC1=CCC[C@@H](C)[C@]1(C)C[C@]1(C)[C@@H](O)CC[C@]2(C)[C@@]3(C)CC[C@]4(C)c5c(C(O)C(=O)O)ccc(O)c5C[C@H]4[C@]3(C)CC[C@]21C (some centres not stated)

Molecular target: T2, Protein cereblon/Indoleamine 2,3-dioxygenase 1 (Homo sapiens, UniProt P14902+Q96SW2)
Experiment: Protac activity at CRBN/IDO1 in human HeLa cells assessed as IDO1 protein degradation
Assay type: cell-based
Conditions: not given
Target sequence in this assay (P14902 whole entry): as the sequence (P14902 whole entry) above
Target sequence in this assay (Q96SW2 whole entry): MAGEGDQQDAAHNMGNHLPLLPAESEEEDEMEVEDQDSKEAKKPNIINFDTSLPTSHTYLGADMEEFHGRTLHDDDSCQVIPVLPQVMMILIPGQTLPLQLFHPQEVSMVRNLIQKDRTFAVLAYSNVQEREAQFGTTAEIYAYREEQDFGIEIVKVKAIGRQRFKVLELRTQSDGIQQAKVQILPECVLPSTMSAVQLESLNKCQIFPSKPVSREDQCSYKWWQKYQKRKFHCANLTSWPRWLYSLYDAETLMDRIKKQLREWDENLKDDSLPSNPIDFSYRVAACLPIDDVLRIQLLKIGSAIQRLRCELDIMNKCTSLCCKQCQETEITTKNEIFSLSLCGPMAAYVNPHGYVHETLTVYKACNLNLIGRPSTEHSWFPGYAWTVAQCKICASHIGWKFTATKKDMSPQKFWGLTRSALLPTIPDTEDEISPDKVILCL

DC50 | SMILES
2840 nM | O=C1CCC(N2C(=O)c3cccc(NCCOCCOCCOCCOCCOCCOCCOCCNCCNc4nonc4/C(=N/O)Nc4cccc(Br)c4)c3C2=O)C(=O)N1 (configuration not stated)

Molecular target: T2, Protein cereblon/Indoleamine 2,3-dioxygenase 1
Experiment: Protac activity at CRBN/IDO1 in human HeLa cells assessed as IDO1 protein degradation relative to control
Assay type: cell-based
Conditions: not given
Target sequence in this assay (P14902 whole entry, looked up): as the sequence (P14902 whole entry) above
Target sequence in this assay (Q96SW2 whole entry, looked up): as the sequence (Q96SW2 whole entry) above

Emax | SMILES
93% | O=C1CCC(N2C(=O)c3cccc(NCCOCCOCCOCCOCCOCCOCCOCCNCCNc4nonc4/C(=N/O)Nc4cccc(Br)c4)c3C2=O)C(=O)N1 (configuration not stated)
